These are literature values, as cited in patent publication US8383579B2, “Method for customized dispensing of variable dose drug combination products for individualizing of therapies” (Glaxosmithkline, LLC, priority 2004, dated 2013).

The conditions of series [1]: Coreg + cimetidine.
The conditions of series [2]: Lanoxin + coreg UID.

For `COc1ccccc1OCCNCC(O)COc1cccc2[nH]c3ccccc3c12` (stereo not drawn) [Coreg], in series [1], the AUC steady state is recorded as 30% and the Cmax result is on record as “no change”.
In the case of `C[C@H]1O[C@@H](O[C@H]2[C@@H](O)C[C@H](O[C@H]3[C@@H](O)C[C@H](O[C@H]4CC[C@@]5(C)[C@H](CC[C@@H]6[C@@H]5C[C@@H](O)[C@]5(C)[C@@H](C7=CC(=O)OC7)CC[C@]65O)C4)O[C@@H]3C)O[C@@H]2C)C[C@H](O)[C@@H]1O` [Lanoxin, digoxin], in series [2], the peak/trough conc was 14-16%.
